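Five compound concentrations were applied to cells in 96-well plates for 48 hours; endpoints were derived by simple linear interpolation of the resulting dose-response curve. The concentration for full growth arrest is given as TGI.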
Columns and labels:
Test in all cases: NCI tumour cell line growth inhibition, 48 h
A498 renal = system: A498 renal
A549 NSCLC = system: A549 NSCLC
CCRF-CEM leukemia = system: CCRF-CEM leukemia
COLO 205 colon = system: COLO 205 colon
DLD-1 colon = system: DLD-1 colon
DMS 114 small cell lung = system: DMS 114 small cell lung
DMS 273 small cell lung = system: DMS 273 small cell lung
EKVX NSCLC = system: EKVX NSCLC
HCC-2998 colon = system: HCC-2998 colon
HCT-116 colon = system: HCT-116 colon
HCT-15 colon = system: HCT-15 colon
HL-60(TB) leukemia = system: HL-60(TB) leukemia
HOP-18 NSCLC = system: HOP-18 NSCLC
HOP-62 NSCLC = system: HOP-62 NSCLC
HOP-92 NSCLC = system: HOP-92 NSCLC
HT29 colon = system: HT29 colon
IGROV1 ovarian = system: IGROV1 ovarian
K-562 leukemia = system: K-562 leukemia
KM12 colon = system: KM12 colon
KM20L2 colon = system: KM20L2 colon
LOX IMVI melanoma = system: LOX IMVI melanoma
M19-MEL melanoma = system: M19-MEL melanoma
MALME-3M melanoma = system: MALME-3M melanoma
MCF7 breast = system: MCF7 breast
MOLT-4 leukemia = system: MOLT-4 leukemia
NCI-H226 lung = system: NCI-H226 lung
NCI-H23 lung = system: NCI-H23 lung
NCI-H460 lung = system: NCI-H460 lung
NCI-H522 lung = system: NCI-H522 lung
NCI/ADR-RES ovarian = system: NCI/ADR-RES ovarian
OVCAR-3 ovarian = system: OVCAR-3 ovarian
OVCAR-4 ovarian = system: OVCAR-4 ovarian
OVCAR-5 ovarian = system: OVCAR-5 ovarian
OVCAR-8 ovarian = system: OVCAR-8 ovarian
P388 leukemia = system: P388 leukemia
P388/ADR leukemia = system: P388/ADR leukemia
RPMI-8226 leukemia = system: RPMI-8226 leukemia
RXF 393 renal = system: RXF 393 renal
SF-268 CNS = system: SF-268 CNS
SF-295 CNS = system: SF-295 CNS
SF-539 CNS = system: SF-539 CNS
SK-MEL-2 melanoma = system: SK-MEL-2 melanoma
SK-MEL-28 melanoma = system: SK-MEL-28 melanoma
SK-MEL-5 melanoma = system: SK-MEL-5 melanoma
SK-OV-3 ovarian = system: SK-OV-3 ovarian
SN12C renal = system: SN12C renal
SN12K1 renal = system: SN12K1 renal
SNB-19 CNS = system: SNB-19 CNS
SNB-75 CNS = system: SNB-75 CNS
SNB-78 CNS = system: SNB-78 CNS
SW-620 colon = system: SW-620 colon
U251 CNS = system: U251 CNS
UACC-257 melanoma = system: UACC-257 melanoma
UACC-62 melanoma = system: UACC-62 melanoma
UO-31 renal = system: UO-31 renal
XF 498 CNS = system: XF 498 CNS

`O=[N+]([O-])c1ccc2[nH]c3c(-c4ccccc4)nccc3c2c1` was tested, and the TGI (A498 renal) was greater than 100 µM, the TGI (A549 NSCLC) was greater than 62 µM and the TGI (CCRF-CEM leukemia) was 62.7 µM. The TGI (COLO 205 colon) was greater than 86.8 µM, the TGI (DLD-1 colon) was greater than 94.3 µM and the TGI (DMS 114 small cell lung) was greater than 87.2 µM. The TGI (DMS 273 small cell lung) was 18.1 µM, the TGI (EKVX NSCLC) was greater than 79.3 µM and the TGI (HCC-2998 colon) was 71 µM. For the same compound, the TGI (HCT-116 colon) was greater than 51.8 µM, the TGI (HCT-15 colon) was greater than 74.7 µM and the TGI (HL-60(TB) leukemia) was 26.4 µM. For the same compound, the TGI (HOP-18 NSCLC) was 61.9 µM, the TGI (HOP-62 NSCLC) was 43 µM and the TGI (HOP-92 NSCLC) was 65.9 µM. The TGI (HT29 colon) was greater than 100 µM, the TGI (IGROV1 ovarian) was 48.6 µM and the TGI (K-562 leukemia) was greater than 100 µM. The TGI (KM12 colon) was greater than 100 µM, the TGI (KM20L2 colon) was greater than 100 µM and the TGI (LOX IMVI melanoma) was greater than 100 µM. For the same compound, the TGI (M19-MEL melanoma) was greater than 78.4 µM, the TGI (MALME-3M melanoma) was 50.7 µM and the TGI (MCF7 breast) was greater than 60.3 µM. The TGI (MOLT-4 leukemia) was 16.4 µM, the TGI (NCI-H226 lung) was 50.5 µM and the TGI (NCI-H23 lung) was greater than 100 µM. The TGI (NCI-H460 lung) was 40.9 µM, the TGI (NCI-H522 lung) was 37.4 µM and the TGI (NCI/ADR-RES ovarian) was greater than 65.1 µM. For the same compound, the TGI (OVCAR-3 ovarian) was 39.4 µM, the TGI (OVCAR-4 ovarian) was greater than 63.1 µM and the TGI (OVCAR-5 ovarian) was greater than 100 µM. The TGI (OVCAR-8 ovarian) was greater than 58.7 µM, the TGI (P388 leukemia) was greater than 47.3 µM and the TGI (P388/ADR leukemia) was 31.4 µM. The TGI (RPMI-8226 leukemia) was greater than 100 µM, the TGI (RXF 393 renal) was greater than 96.2 µM and the TGI (SF-268 CNS) was greater than 80 µM. It also gave a TGI (SF-295 CNS) of 45.7 µM, a TGI (SF-539 CNS) greater than 100 µM and a TGI (SK-MEL-2 melanoma) of 76.6 µM. The TGI (SK-MEL-28 melanoma) was greater than 85.3 µM, the TGI (SK-MEL-5 melanoma) was greater than 61.1 µM and the TGI (SK-OV-3 ovarian) was 55.7 µM. The TGI (SN12C renal) was greater than 84.6 µM, the TGI (SN12K1 renal) was 79.9 µM and the TGI (SNB-19 CNS) was 58.5 µM. It also gave a TGI (SNB-75 CNS) of 38.3 µM, a TGI (SNB-78 CNS) of 93.1 µM and a TGI (SW-620 colon) greater than 89.7 µM. The TGI (U251 CNS) was greater than 64.9 µM, the TGI (UACC-257 melanoma) was 89.4 µM and the TGI (UACC-62 melanoma) was 38.6 µM. For the same compound, the TGI (UO-31 renal) was 44.4 µM and the TGI (XF 498 CNS) was greater than 61.7 µM.
Work on `CCCCCOc1ccc(C=Nc2ccc(-c3ccc(N=Cc4ccc(OCCCCC)cc4)c(OC)c3)cc2OC)cc1` yielded a TGI (A498 renal) greater than 100 µM, a TGI (A549 NSCLC) greater than 100 µM and a TGI (CCRF-CEM leukemia) greater than 100 µM. For the same compound, the TGI (COLO 205 colon) was greater than 100 µM, the TGI (DLD-1 colon) was greater than 100 µM and the TGI (DMS 114 small cell lung) was greater than 100 µM. It also gave a TGI (DMS 273 small cell lung) greater than 100 µM, a TGI (EKVX NSCLC) greater than 100 µM and a TGI (HCC-2998 colon) greater than 100 µM. The TGI (HCT-116 colon) was greater than 100 µM, the TGI (HCT-15 colon) was greater than 100 µM and the TGI (HL-60(TB) leukemia) was greater than 100 µM. The TGI (HOP-18 NSCLC) was greater than 100 µM, the TGI (HOP-62 NSCLC) was greater than 100 µM and the TGI (HOP-92 NSCLC) was greater than 100 µM. For the same compound, the TGI (HT29 colon) was greater than 100 µM, the TGI (IGROV1 ovarian) was greater than 100 µM and the TGI (K-562 leukemia) was greater than 31.6 µM. The TGI (KM12 colon) was greater than 100 µM, the TGI (KM20L2 colon) was greater than 100 µM and the TGI (LOX IMVI melanoma) was greater than 100 µM. For the same compound, the TGI (M19-MEL melanoma) was greater than 100 µM, the TGI (MALME-3M melanoma) was greater than 100 µM and the TGI (MCF7 breast) was greater than 100 µM. For the same compound, the TGI (MOLT-4 leukemia) was greater than 100 µM, the TGI (NCI-H226 lung) was greater than 100 µM and the TGI (NCI-H23 lung) was greater than 100 µM. The TGI (NCI-H460 lung) was greater than 100 µM, the TGI (NCI-H522 lung) was greater than 100 µM and the TGI (NCI/ADR-RES ovarian) was greater than 100 µM. It also gave a TGI (OVCAR-3 ovarian) greater than 100 µM, a TGI (OVCAR-4 ovarian) greater than 31.6 µM and a TGI (OVCAR-5 ovarian) greater than 100 µM. It also gave a TGI (OVCAR-8 ovarian) greater than 100 µM, a TGI (P388 leukemia) greater than 100 µM and a TGI (RPMI-8226 leukemia) greater than 100 µM. For the same compound, the TGI (RXF 393 renal) was greater than 100 µM, the TGI (SF-268 CNS) was greater than 100 µM and the TGI (SF-295 CNS) was greater than 100 µM. For the same compound, the TGI (SF-539 CNS) was greater than 100 µM, the TGI (SK-MEL-2 melanoma) was greater than 100 µM and the TGI (SK-MEL-28 melanoma) was greater than 100 µM. It also gave a TGI (SK-MEL-5 melanoma) greater than 100 µM, a TGI (SK-OV-3 ovarian) greater than 100 µM and a TGI (SN12C renal) greater than 100 µM. For the same compound, the TGI (SN12K1 renal) was greater than 100 µM, the TGI (SNB-19 CNS) was greater than 100 µM and the TGI (SNB-75 CNS) was greater than 100 µM. For the same compound, the TGI (SNB-78 CNS) was greater than 100 µM, the TGI (SW-620 colon) was greater than 100 µM and the TGI (U251 CNS) was greater than 100 µM. For the same compound, the TGI (UACC-257 melanoma) was greater than 100 µM, the TGI (UACC-62 melanoma) was greater than 100 µM and the TGI (UO-31 renal) was greater than 100 µM. It also gave a TGI (XF 498 CNS) greater than 100 µM.
